Where a SMILES comes first, the peptide text is derived from it. The star is where a group is joined. NHtBu = CC(C)(C)N*
Row | SMILES | logP
1 | Nc1nc2c(ncn2C2OC(CO)CC2F)c(=O)[nH]1 (stereo not given) | -1.18
2 | CC(=O)NC(C)C(=O)NC(CCC(=O)O)C(=O)NC(C)C(=O)NC(C)(C)C (stereo not drawn) (Ac-Ala-Glu-Ala-NHtBu; configuration not given here) | -0.67
3 | CCCn1cnc2c(NC(C)=O)ncnc21 | 0.09
4 | CC(=O)NC(CC(C)C)C(=O)NC(CCCCN)C(=O)NC(Cc1ccccc1)C(N)=O (stereo not drawn) (Ac-Leu-Lys-Phe-NH2; configuration not given here) | 1.14
5 | Cc1c(Cl)c(Cl)c(Cl)c(Cl)c1Cl | 5.62
6 | CCC1(CCC(C)C)C(=O)NC(=O)N(C)C1=O (stereo not given) | 2.45
7 | COC1CC(OC2CCC3(C)C(CCC4C3CCC3(C)C(C5=CC(=O)OC5)C(OC(C)=O)CC43OC(C)=O)C2)OC(C)C1O (stereo not given) | 2.95
8 | O=C(O)c1c(Br)cccc1Br | 3.58
9 | CCN1C(=O)C(=O)c2c(Cl)cccc2C1=O | 1.43
10 | CCCCCCCOc1cccc(NC(=O)OCCN2CCOCC2)c1 | 5.28
11 | Clc1cc2oc3c(Cl)cc(Cl)c(Cl)c3c2cc1Cl | 6.26
12 | CC1CC2C3CCC4=CC(=O)C=CC4(C)C3(F)C(O)CC2(C)C1(O)C(=O)NCC#N (stereo not given) | 1.57
13 | CCN1C(=O)C(=O)c2ccc(OC)cc2C1=O | 1.49
14 | CCC1COC(Cn2cncn2)(c2ccc([N+](=O)[O-])cc2)O1 (stereo not given) | 1.52
15 | CC(=O)c1ccc2c(c1)OCCOCCOCCOCCOCCO2 | -0.05
16 | CCCCNC(=O)c1n[nH]c(C)c1[N+](=O)[O-] | 1.27
17 | CCOC(=O)C(C)Oc1ccc(Oc2cnc3ccccc3n2)cc1 (stereo not given) | 3.47
18 | CCNc1nc(SC)nc(C(Cl)(Cl)Cl)n1 | 3.87
19 | CC(C)(C)N(NC(=O)c1ccccc1F)C(=O)c1ccccc1Cl | 2.63
20 | COc1ccc(Cc2cccc(-c3c(O)c4ccc(Cl)cc4[nH]c3=O)c2)cc1 | 4.8
21 | CCCC(=O)OCn1ncc2c(=O)[nH]cnc21 | 0.6
22 | CC1NC(=O)C(CC(=O)NC(Cc2cn(C(=O)OCc3ccccc3)c3ccccc23)C(=O)NC(Cc2ccccc2)C(=O)N(C)Cc2ccccc2)NC1=O (stereo not given) | 5.66

Row | SMILES | logP
23 | CCN1CCN(C(=O)N[C@@H](C(=O)N[C@@H]2C(=O)N3[C@@H]2SC(C)(C)[C@@H]3C(=O)O)c2ccccc2)C(=O)C1=O | 0.5
24 | CN(C)C(=O)COC(=O)c1cc(S(N)(=O)=O)c(Cl)cc1NCc1ccco1 | 1.18
25 | CC(=O)C12OC(C)(c3ccc(F)cc3)OC1CC1C3CCC4=CC(=O)CCC4(C)C3CCC12C (stereo not given) | 5.7
26 | N=c1ccn2c(n1)OC1C(O)C(CCl)OC12 (stereo not given) | -3.1
27 | Oc1ccc(F)c2cccnc12 | 2.3
28 | CCSc1nc(NC(C)C)nc(NC(C)C)n1 | 3.81
29 | CN(CCCn1ccnc1C=NO)S(=O)(=O)C(F)(F)F | 1.77
30 | Nc1nc(=O)n(C2CCC(CO)O2)cc1I (stereo not given) | -0.31
31 | CSCCNC(=O)C(F)(F)Cn1cnc([N+](=O)[O-])n1 | 0.41
32 | Clc1cc(Cl)c(Cl)c(-c2cc(Cl)c(Cl)cc2Cl)c1 | 7.12
33 | O=[N+]([O-])c1ncn[nH]1 | -0.33
34 | COCCCNc1nc(NC(C)C)nc(SC)n1 | 2.82
35 | O=C(CCn1cnc([N+](=O)[O-])n1)NCCO | -1.32
36 | O=[N+]([O-])c1nccn1COC(CO)C(O)CO (stereo not given) | -1.47
37 | COCc1ccc(O)c2ncccc12 | 1.78
38 | CON=C(C(=O)NC1C(=O)N2C(C(=O)OCOC(=O)C(C)(C)C)=CCSC12)c1csc(N)n1 (stereo not given) | 1.76
39 | O=c1ccn(C2C=C(CO)C(O)C2O)c(=O)[nH]1 (stereo not given) | -2.19
40 | CC(O)COc1ccccc1 (stereo not given) | 1.61
41 | CCOC(=O)Cn1ccnc1C=Cc1ccc([N+](=O)[O-])o1 | 1.27
42 | CC1=C(C(=O)O)N2C(=O)C(NC(=O)C(OC(=O)C(C)C)c3ccccc3)C2SC1 (stereo not given) | 2.05
43 | Cc1cc(O)c(C)c(C)c1O | 1.69
44 | O=NN(CCCl)C(=O)NC1CCCCC1C(=O)O (stereo not given) | 2.01

Row | SMILES | logP
45 | Oc1cccc(Cl)n1 | 0.93
46 | O=c1nc(N=CN2CCCC2)ccn1C1OC(CO)C(O)C1O (stereo not given) | -1.15
47 | CC1=C(N2CC2)C(=O)C(Br)=C(N2CC2)C1=O | 1.36
48 | Oc1ccc(I)c2cccnc12 | 3.27
49 | CC(=O)OCN1C(=O)C2=C(CCCC2)C1=O | 1.15
50 | OCc1ccc(O)c2ncccc12 | 1
51 | O=c1nc(N=CN2CCCCC2)ccn1C1OC(CO)C(O)C1O (stereo not given) | -0.66
52 | C=C1CCC2C(C1)c1c(OC)cc(CCC)cc1OC2(C)C (stereo not given) | 6.26
53 | CCC(C)NC(=O)C=C(N)c1ccc(Cl)cc1 (stereo not given) | 2.94
54 | CN(C)c1nc(=O)cc(-c2ccc([N+](=O)[O-])o2)s1 | 0.55
55 | CN(C)N=Nc1ccc2oc3ccccc3c2c1 | 4.55
56 | CCCCCc1ccc(OCC(OC(=O)n2ccnc2)C(C)(C)C)cc1 (stereo not given) | 5.26
57 | c1nnn(C23CC4CC(CC(C4)C2)C3)n1 | 2.95
58 | COC(=O)c1c(C)[nH]c(-c2ncccc2Cl)c1C(=O)OC | 1.51
59 | O=[N+]([O-])C=C1NCCN1Cc1ccccn1 | -0.87
60 | CCN(CC)C(=O)N(C)SN(C)C(=O)ON=C(C)SC | 3.2
61 | NS(=O)(=O)c1cc(S(=O)(=O)c2ccc(CN3CCOCC3)cc2)cs1 | 0.98
62 | Cc1cccc(C)c1NN=C(C#N)C#N | 2.8
63 | CCC(=O)C(CS(=O)(=O)c1ccc(C)cc1)c1ccc(C)cc1 (stereo not given) | 3.3
64 | O=c1[nH]c(Nc2ccccc2)nc2c1ncn2CC(O)CO (stereo not given) | 0.4
65 | O=C(OCCCl)n1cc(F)c(=O)[nH]c1=O | 0.02
